molecular target: T1, PIP4K2C (Homo sapiens, UniProt Q8TBX8); test: HiBiT PIP4K2C degradation assay in MOLT-4 cells (endogenous PIP4K2C C-terminally tagged with HiBiT); assay type: cell-based; set-up: untagged in primary human PBMCs and monocyte-derived dendritic cells; conditions: 6 hours of incubation time, rather than 24 hours; MOLT-4, top concentration 10 micromolar; read-out: HiBIT-degradation MOLT4 PIP4k2C DC50 (6 hours, marked *)
T1 sequence (Q8TBX8 1-421): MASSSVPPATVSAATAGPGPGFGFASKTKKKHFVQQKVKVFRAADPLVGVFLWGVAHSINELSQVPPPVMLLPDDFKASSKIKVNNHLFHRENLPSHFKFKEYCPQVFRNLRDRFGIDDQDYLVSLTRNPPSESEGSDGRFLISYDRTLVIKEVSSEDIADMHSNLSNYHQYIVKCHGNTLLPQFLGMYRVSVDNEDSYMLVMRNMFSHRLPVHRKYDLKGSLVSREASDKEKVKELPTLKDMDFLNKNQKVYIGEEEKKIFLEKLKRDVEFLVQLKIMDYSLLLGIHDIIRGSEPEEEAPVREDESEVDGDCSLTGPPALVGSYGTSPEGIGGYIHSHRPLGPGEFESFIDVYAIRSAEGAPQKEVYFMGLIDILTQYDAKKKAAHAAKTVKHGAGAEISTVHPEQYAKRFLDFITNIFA
Summary of the method: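 DC50 derived by Hill fit of luminescence from Nano-Glo HiBiT lytic detection. Cells were HiBiT knock-in MOLT-4 (C-terminal tag on endogenous PIP4K2C), exposed 6 h or 24 h at 37 C to compound, top concentration 10 micromolar, 3-fold steps, 10 points, duplicates.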

Row | Compound | DC50
1 | O=C1CC[C@H](Nc2ccc(C3CCN(CC4CCN(C(=O)[C@H]5CC[C@H](Nc6ncc(F)c(-c7cccc(N8CCCCC8=O)c7)n6)CC5)CC4)CC3)c(F)c2)C(=O)N1 (single isomer, unassigned) [Compound 449] | < 500 nM
2 | O=C1CC[C@@H](Nc2ccc(C3CCN(CC4CCN(C(=O)[C@H]5CC[C@H](Nc6ncc(F)c(-c7cccc(-n8ccccc8=O)c7)n6)CC5)CC4)CC3)c(F)c2)C(=O)N1 (single isomer, unassigned) [Compound 455] | < 500 nM
3 | O=C1CC[C@H](Nc2ccc(C3CCN(CC4CCN(C(=O)[C@H]5CC[C@H](Nc6ncc(F)c(-c7cccc(-n8ccccc8=O)c7)n6)CC5)CC4)CC3)c(F)c2)C(=O)N1 (single isomer, unassigned) [Compound 456] | < 500 nM
4 | O=C1CC[C@H](Nc2ccc(N3CCN([C@H]4CC[C@H](C(=O)N[C@H]5CC[C@H](Nc6ncc(F)c(-c7cccc(N8CCCCC8=O)c7)n6)CC5)CC4)CC3)c(F)c2)C(=O)N1 (single isomer, unassigned) [Compound 458] | < 500 nM
5 | O=C1CC[C@@H](Nc2ccc(N3CCN(C[C@H]4CC[C@H](CNC(=O)[C@H]5CC[C@H](Nc6ncc(F)c(-c7cccc(-n8ccccc8=O)c7)n6)CC5)CC4)CC3)c(F)c2)C(=O)N1 (single isomer, unassigned) [Compound 459] | < 500 nM
6 | O=C1CC[C@H](Nc2ccc(N3CCN(C[C@H]4CC[C@H](CNC(=O)[C@H]5CC[C@H](Nc6ncc(F)c(-c7cccc(-n8ccccc8=O)c7)n6)CC5)CC4)CC3)c(F)c2)C(=O)N1 (single isomer, unassigned) [Compound 460] | < 500 nM
7 | O=C1CC[C@@H](Nc2ccc(N3CCN([C@H]4CC[C@H](C(=O)N[C@H]5CC[C@H](Nc6ncc(F)c(-c7cccc(N8CCCOC8=O)c7)n6)CC5)CC4)CC3)c(F)c2)C(=O)N1 (single isomer, unassigned) [Compound 461] | < 500 nM
8 | O=C1CC[C@H](Nc2ccc(N3CCN([C@H]4CC[C@H](C(=O)N[C@H]5CC[C@H](Nc6ncc(F)c(-c7cccc(N8CCCOC8=O)c7)n6)CC5)CC4)CC3)c(F)c2)C(=O)N1 (single isomer, unassigned) [Compound 462] | < 500 nM
9 | O=C1CCC(Nc2ccc(C3CCN([C@H]4CC[C@H](C(=O)N[C@H]5CC[C@H](Nc6ncc(F)c(-c7cccc(N8CCCCC8=O)c7)n6)CC5)CC4)CC3)c(F)c2)C(=O)N1 (single isomer, unassigned) [Compound 592] | < 500 nM
10 | O=C1CC[C@@H](Nc2ccc(C3CCN([C@H]4CC[C@H](C(=O)N[C@H]5CC[C@H](Nc6ncc(F)c(-c7cccc(N8CCCCC8=O)c7)n6)CC5)CC4)CC3)c(F)c2)C(=O)N1 (single isomer, unassigned) [Compound 593] | < 500 nM
11 | O=C1CC[C@H](Nc2ccc(N3CCC(N4CCC(O)(C(=O)N[C@H]5CC[C@H](Nc6ncc(F)c(-c7cccc(-n8ccccc8=O)c7)n6)CC5)CC4)CC3)c(F)c2)C(=O)N1 (single isomer, unassigned) [Compound 594] | < 500 nM
12 | O=C1CC[C@@H](Nc2ccc(N3CCC(N4CCC(O)(C(=O)N[C@H]5CC[C@H](Nc6ncc(F)c(-c7cccc(-n8ccccc8=O)c7)n6)CC5)CC4)CC3)c(F)c2)C(=O)N1 (single isomer, unassigned) [Compound 595] | < 500 nM
13 | O=C1CC[C@H](Nc2ccc(C3CCN(CC4CCN(C(=O)[C@H]5CC[C@H](Nc6ncc(F)c(-c7cccc(N8CCCOC8=O)c7)n6)CC5)CC4)CC3)c(F)c2)C(=O)N1 (single isomer, unassigned) [Compound 600] | < 500 nM
14 | O=C1CC[C@@H](Nc2ccc(C3CCN(CC4CCN(C(=O)[C@H]5CC[C@H](Nc6ncc(F)c(-c7cccc(N8CCCOC8=O)c7)n6)CC5)CC4)CC3)c(F)c2)C(=O)N1 (single isomer, unassigned) [Compound 601] | < 500 nM
15 | O=C1CC[C@@H](Nc2ccc(N3CCN([C@H]4CC[C@H](C(=O)N[C@H]5CC[C@H](Nc6ncc(F)c(-c7cccc(-n8ccccc8=O)c7)n6)CC5)CC4)CC3)c(F)c2)C(=O)N1 (single isomer, unassigned) [Compound 602] | < 500 nM
16 | O=C1CC[C@H](Nc2ccc(N3CCN([C@H]4CC[C@H](C(=O)N[C@H]5CC[C@H](Nc6ncc(F)c(-c7cccc(-n8ccccc8=O)c7)n6)CC5)CC4)CC3)c(F)c2)C(=O)N1 (single isomer, unassigned) [Compound 603] | < 500 nM
17 | Cn1nc([C@@H]2CCC(=O)NC2=O)c2ccc(C3CCN(CC4CCN(C(=O)O[C@H]5CC[C@H](Nc6ncc(F)c(-c7cccc(-n8ccccc8=O)c7)n6)CC5)CC4)CC3)cc21 (single isomer, unassigned) [Compound 638] | < 500 nM
18 | Cn1nc([C@H]2CCC(=O)NC2=O)c2ccc(C3CCN(CC4CCN(C(=O)O[C@H]5CC[C@H](Nc6ncc(F)c(-c7cccc(-n8ccccc8=O)c7)n6)CC5)CC4)CC3)cc21 (single isomer, unassigned) [Compound 639] | < 500 nM

Next, values leading:

Row | DC50 | Compound
19 | < 500 nM | O=C1CC[C@@H](Nc2ccc(C3CCN([C@H]4CC[C@H](NC(=O)[C@H]5CC[C@H](Nc6ncc(F)c(-c7cccc(-c8ccc[nH]c8=O)c7)n6)CC5)CC4)CC3)c(F)c2)C(=O)N1 (single isomer, unassigned) [Compound 419]
20 | < 500 nM | O=C1CC[C@@H](Nc2ccc(N3CCN([C@H]4CC[C@H](NC(=O)[C@H]5CC[C@H](Nc6ncc(F)c(-c7cccc(-n8ccccc8=O)c7)n6)CC5)CC4)CC3)c(F)c2)C(=O)N1 (single isomer, unassigned) [Compound 420]
21 | < 500 nM | O=C1CC[C@@H](Nc2ccc(C3CCN(CC4CCN(C(=O)[C@H]5CC[C@H](Nc6ncc(F)c(-c7cccc(-c8ccc[nH]c8=O)c7)n6)CC5)CC4)CC3)c(F)c2)C(=O)N1 (single isomer, unassigned) [Compound 421]
22 | < 500 nM | Cn1nc([C@H]2CCC(=O)NC2=O)c2ccc(C3CCN(CC4CCN(C(=O)[C@H]5CC[C@H](Nc6ncc(F)c(-c7cccc(-n8ccccc8=O)c7)n6)CC5)CC4)CC3)cc21 (single isomer, unassigned) [Compound 422]
23 | < 500 nM | O=C1CC[C@H](Nc2ccc(N3CCN(CC4(O)CCN(C(=O)[C@H]5CC[C@H](Nc6ncc(F)c(-c7cccc(-n8ccccc8=O)c7)n6)CC5)CC4)CC3)c(F)c2)C(=O)N1 (single isomer, unassigned) [Compound 423]
24 | < 500 nM | O=C1CC[C@@H](Nc2ccc(N3CCN([C@H]4CC[C@H](NC(=O)[C@H]5CC[C@H](Nc6ncc(F)c(-c7cccc(-c8ccc[nH]c8=O)c7)n6)CC5)CC4)CC3)c(F)c2)C(=O)N1 (single isomer, unassigned) [Compound 432]
25 | < 500 nM | O=C1CC[C@H](Nc2ccc(C3CCN([C@H]4CC[C@H](NC(=O)[C@H]5CC[C@H](Nc6ncc(F)c(-c7cccc(-n8ccccc8=O)c7)n6)CC5)CC4)CC3)c(F)c2)C(=O)N1 (single isomer, unassigned) [Compound 434]
26 | < 500 nM | O=C1CC[C@H](Nc2ccc(N3CCN([C@H]4CC[C@H](NC(=O)[C@H]5CC[C@H](Nc6ncc(F)c(-c7cccc(-n8ccccc8=O)c7)n6)CC5)CC4)CC3)c(F)c2)C(=O)N1 (single isomer, unassigned) [Compound 436]
27 | < 500 nM | O=C1CC[C@H](Nc2ccc(C3CCN(CC4CCN(C(=O)[C@H]5CC[C@H](Nc6ncc(F)c(-c7cccc(-c8ccc[nH]c8=O)c7)n6)CC5)CC4)CC3)c(F)c2)C(=O)N1 (single isomer, unassigned) [Compound 437]
28 | < 500 nM | Cn1nc([C@@H]2CCC(=O)NC2=O)c2ccc(C3CCN(CC4CCN(C(=O)[C@H]5CC[C@H](Nc6ncc(F)c(-c7cccc(-n8ccccc8=O)c7)n6)CC5)CC4)CC3)cc21 (single isomer, unassigned) [Compound 438]
29 | < 500 nM | O=C1CC[C@@H](Nc2ccc(N3CCN(CC4(O)CCN(C(=O)[C@H]5CC[C@H](Nc6ncc(F)c(-c7cccc(-n8ccccc8=O)c7)n6)CC5)CC4)CC3)c(F)c2)C(=O)N1 (single isomer, unassigned) [Compound 439]
30 | < 500 nM | O=C1CC[C@H](Nc2ccc(N3CCN([C@H]4CC[C@H](NC(=O)[C@H]5CC[C@H](Nc6ncc(F)c(-c7cccc(-c8ccc[nH]c8=O)c7)n6)CC5)CC4)CC3)c(F)c2)C(=O)N1 (single isomer, unassigned) [Compound 441]
31 | < 500 nM | O=C1CC[C@@H](Nc2ccc(C3CCN(CC4(O)CCN(C(=O)[C@H]5CC[C@H](Nc6ncc(F)c(-c7cccc(-n8ccccc8=O)c7)n6)CC5)CC4)CC3)c(F)c2)C(=O)N1 (single isomer, unassigned) [Compound 442]
32 | < 500 nM | O=C1CC[C@H](Nc2ccc(C3CCN(CC4(O)CCN(C(=O)[C@H]5CC[C@H](Nc6ncc(F)c(-c7cccc(-n8ccccc8=O)c7)n6)CC5)CC4)CC3)c(F)c2)C(=O)N1 (single isomer, unassigned) [Compound 443]
33 | < 500 nM | O=C1CC[C@@H](Nc2ccc(N3CCN([C@H]4CC[C@H](C(=O)N[C@H]5CC[C@H](Nc6ncc(F)c(-c7cccc(N8CCCCC8=O)c7)n6)CC5)CC4)CC3)c(F)c2)C(=O)N1 (single isomer, unassigned) [Compound 445]
34 | < 500 nM | O=C1CC[C@@H](Nc2ccc(C3CCN(CC4CCN(C(=O)[C@H]5CC[C@H](Nc6ncc(F)c(-c7cccc(N8CCCCC8=O)c7)n6)CC5)CC4)CC3)c(F)c2)C(=O)N1 (single isomer, unassigned) [Compound 448]
